Reference: US20260015350A1, “AZAQUINAZOLINE PAN-KRAS INHIBITORS” (Mirati Therapeutics, Inc., priority 2022, published 2026)

Tests used:
KRas^WT = target: T1, KRas^WT (Homo sapiens, UniProt P01116); experiment: KRas binding assay (TR-FRET tracer displacement), KRas WT; conditions: for inhibition at 0.01 µM: single point, 10 nM compound, TR-FRET; for IC50: TR-FRET tracer displacement, KRas WT
T1 construct: Biotinylated KRas (corresponding to amino acids 1-169, produced at Accelegan Inc.); biotin (biotinylated); purchased Accelegan Inc

KRas^G12A = target: T2, KRas^G12A (Homo sapiens, UniProt P01116, G12A); experiment: KRas binding assay (TR-FRET tracer displacement), KRas G12A; conditions: for inhibition at 0.01 µM: single point, 10 nM compound, TR-FRET; for IC50: TR-FRET tracer displacement, KRas G12A
T2 construct: Biotinylated KRas (corresponding to amino acids 1-169, produced at Accelegan Inc.); biotin (biotinylated); purchased Accelegan Inc

KRas^G12C = target: T3, KRas^G12C (Homo sapiens, UniProt P01116, G12C); experiment: KRas binding assay (TR-FRET tracer displacement), KRas G12C; conditions: for inhibition at 0.01 µM: single point, 10 nM compound, TR-FRET; for IC50: TR-FRET tracer displacement, KRas G12C
T3 construct: Biotinylated KRas (corresponding to amino acids 1-169, produced at Accelegan Inc.); biotin (biotinylated); purchased Accelegan Inc

KRas^G12D = target: T4, KRas^G12D (Homo sapiens, UniProt P01116, G12D); experiment: KRas binding assay (TR-FRET tracer displacement), KRas G12D
T4 construct: Biotinylated KRas (corresponding to amino acids 1-169, produced at Accelegan Inc.); biotin (biotinylated); purchased Accelegan Inc

KRas^G12R = target: T5, KRas^G12R (Homo sapiens, UniProt P01116, G12R); experiment: KRas binding assay (TR-FRET tracer displacement), KRas G12R
T5 construct: Biotinylated KRas (corresponding to amino acids 1-169, produced at Accelegan Inc.); biotin (biotinylated); purchased Accelegan Inc

KRas^G12S = target: T6, KRas^G12S (Homo sapiens, UniProt P01116, G12S); experiment: KRas binding assay (TR-FRET tracer displacement), KRas G12S; conditions: for inhibition at 0.01 µM: single point, 10 nM compound, TR-FRET; for IC50: TR-FRET tracer displacement, KRas G12S
T6 construct: Biotinylated KRas (corresponding to amino acids 1-169, produced at Accelegan Inc.); biotin (biotinylated); purchased Accelegan Inc

KRas^G12V = target: T7, KRas^G12V (Homo sapiens, UniProt P01116, G12V); experiment: KRas binding assay (TR-FRET tracer displacement), KRas G12V
T7 construct: Biotinylated KRas (corresponding to amino acids 1-169, produced at Accelegan Inc.); biotin (biotinylated); purchased Accelegan Inc

KRas^G13D = target: T8, KRas^G13D (Homo sapiens, UniProt P01116, G13D); experiment: KRas binding assay (TR-FRET tracer displacement), KRas G13D; conditions: for inhibition at 0.01 µM: single point, 10 nM compound, TR-FRET; for IC50: TR-FRET tracer displacement, KRas G13D
T8 construct: Biotinylated KRas (corresponding to amino acids 1-169, produced at Accelegan Inc.); biotin (biotinylated); purchased Accelegan Inc

KRas^Q61H = target: T9, KRas^Q61H (Homo sapiens, UniProt P01116, Q61H); experiment: KRas binding assay (TR-FRET tracer displacement), KRas Q61H; conditions: for inhibition at 0.01 µM: single point, 10 nM compound, TR-FRET; for IC50: TR-FRET tracer displacement, KRas Q61H
T9 construct: Biotinylated KRas (corresponding to amino acids 1-169, produced at Accelegan Inc.); biotin (biotinylated); purchased Accelegan Inc

[1] = tested on: KRas-mediated phosphorylation of ERK in AsPC-1 cells; experiment: Inhibition of KRas-mediated phosphorylation of ERK (Cisbio HTRF pERK), AsPC-1 cells; assay type: cell-based; conditions: Homo sapiens; for IC50: ASPC1, AsPC-1 cells, HTRF pERK; for inhibition at 0.1 µM: ASPC1, 3 h, single point, 100 nM compound, 3 hrs, AsPC-1 cells
Summary of the method: (§1)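 A cell-based HTRF pERK assay: ten-point, threefold titrations beginning at 10 uM were applied for 3 hrs, with 0.2 uM Trametinib wells as the minimum control. Cells were lysed cold, and lysate was incubated with the antibody pair for 2 hrs before reading.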

[2] = tested on: KRas-mediated phosphorylation of ERK in H727 cells; experiment: Inhibition of KRas-mediated phosphorylation of ERK (Cisbio HTRF pERK), H727 cells; assay type: cell-based; conditions: Homo sapiens; for IC50: NCI-H727, H727 cells, HTRF pERK; for inhibition at 0.1 µM: NCI-H727, 3 h, single point, 100 nM compound, 3 hrs, H727 cells
Summary of the method: as §1

[3] = tested on: KRas-mediated phosphorylation of ERK in A549 cells; experiment: Inhibition of KRas-mediated phosphorylation of ERK (Cisbio HTRF pERK), A549 cells; assay type: cell-based; conditions: Homo sapiens; for inhibition at 0.1 µM: A549, 3 h, single point, 100 nM compound, 3 hrs
Summary of the method: as §1

[4] = tested on: KRas-mediated phosphorylation of ERK in H460 cells; experiment: Inhibition of KRas-mediated phosphorylation of ERK (Cisbio HTRF pERK), H460 cells; assay type: cell-based; conditions: Homo sapiens; for inhibition at 0.1 µM: NCI-H460, 3 h, single point, 100 nM compound, 3 hrs
Summary of the method: as §1

[5] = tested on: KRas-mediated phosphorylation of ERK in HCT116 cells; experiment: Inhibition of KRas-mediated phosphorylation of ERK (Cisbio HTRF pERK), HCT116 cells; assay type: cell-based; conditions: Homo sapiens; for inhibition at 0.1 µM: HCT-116, 3 h, single point, 100 nM compound, 3 hrs
Summary of the method: as §1

[6] = tested on: KRas-mediated phosphorylation of ERK in H358 cells; experiment: Inhibition of KRas-mediated phosphorylation of ERK (Cisbio HTRF pERK), H358 cells; assay type: cell-based; conditions: Homo sapiens; for inhibition at 0.1 µM: NCI-H358, 3 h, single point, 100 nM compound, 3 hrs
Summary of the method: as §1

T5 sequence (P01116 1-169 isoform P01116-2 G12R): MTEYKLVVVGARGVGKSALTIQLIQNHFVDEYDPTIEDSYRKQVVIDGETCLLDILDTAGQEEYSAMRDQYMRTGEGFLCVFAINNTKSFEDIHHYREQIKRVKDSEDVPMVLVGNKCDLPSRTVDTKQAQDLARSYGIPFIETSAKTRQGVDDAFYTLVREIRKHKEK
T8 sequence (P01116 1-169 isoform P01116-2 G13D): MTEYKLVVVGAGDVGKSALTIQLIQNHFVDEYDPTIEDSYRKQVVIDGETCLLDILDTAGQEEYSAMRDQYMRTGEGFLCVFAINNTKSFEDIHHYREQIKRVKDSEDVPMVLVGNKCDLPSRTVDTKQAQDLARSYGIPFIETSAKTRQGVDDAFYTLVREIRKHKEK
T3 sequence (P01116 1-169 isoform P01116-2 G12C): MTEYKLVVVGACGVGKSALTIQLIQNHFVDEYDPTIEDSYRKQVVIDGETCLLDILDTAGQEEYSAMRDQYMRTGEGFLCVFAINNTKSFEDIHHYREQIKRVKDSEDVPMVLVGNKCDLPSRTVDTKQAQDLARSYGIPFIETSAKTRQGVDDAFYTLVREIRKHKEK
T7 sequence (P01116 1-169 isoform P01116-2 G12V): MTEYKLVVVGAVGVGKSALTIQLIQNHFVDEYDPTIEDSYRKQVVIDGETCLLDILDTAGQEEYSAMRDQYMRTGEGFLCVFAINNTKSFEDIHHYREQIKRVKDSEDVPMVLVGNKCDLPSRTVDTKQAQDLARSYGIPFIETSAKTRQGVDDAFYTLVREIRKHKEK
T9 sequence (P01116 1-169 isoform P01116-2 Q61H): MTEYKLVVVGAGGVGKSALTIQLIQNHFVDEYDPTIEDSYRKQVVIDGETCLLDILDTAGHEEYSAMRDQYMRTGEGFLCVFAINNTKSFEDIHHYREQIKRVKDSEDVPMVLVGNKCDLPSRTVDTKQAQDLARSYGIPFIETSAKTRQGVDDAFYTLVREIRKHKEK
T4 sequence (P01116 1-169 isoform P01116-2 G12D): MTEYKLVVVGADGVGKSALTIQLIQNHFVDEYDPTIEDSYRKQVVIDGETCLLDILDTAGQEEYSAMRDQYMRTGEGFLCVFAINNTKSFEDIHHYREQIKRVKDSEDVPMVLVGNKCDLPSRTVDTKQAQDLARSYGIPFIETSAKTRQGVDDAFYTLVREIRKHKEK
T1 sequence (P01116 1-169 isoform P01116-2): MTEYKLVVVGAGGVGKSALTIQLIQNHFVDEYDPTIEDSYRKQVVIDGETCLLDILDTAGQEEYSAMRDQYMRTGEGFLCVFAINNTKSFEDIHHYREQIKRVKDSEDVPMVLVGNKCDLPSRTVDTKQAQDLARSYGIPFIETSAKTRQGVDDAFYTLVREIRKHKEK
T6 sequence (P01116 1-169 isoform P01116-2 G12S): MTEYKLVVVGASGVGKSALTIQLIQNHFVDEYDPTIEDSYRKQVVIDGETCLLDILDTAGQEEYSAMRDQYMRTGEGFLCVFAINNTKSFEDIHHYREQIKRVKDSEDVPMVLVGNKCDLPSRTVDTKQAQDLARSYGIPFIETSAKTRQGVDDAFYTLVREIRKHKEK
T2 sequence (P01116 1-169 isoform P01116-2 G12A): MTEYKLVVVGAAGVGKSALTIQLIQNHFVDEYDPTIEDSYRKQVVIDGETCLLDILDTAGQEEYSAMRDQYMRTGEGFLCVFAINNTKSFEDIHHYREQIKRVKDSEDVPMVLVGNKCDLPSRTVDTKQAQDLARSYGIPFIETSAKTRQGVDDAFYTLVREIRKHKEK

Row | inhibition at 0.01 µM (KRas^WT) | inhibition at 0.01 µM (KRas^G12A) | inhibition at 0.01 µM (KRas^G12C) | IC50 (KRas^G12D) | IC50 (KRas^G12R) | inhibition at 0.01 µM (KRas^G12S) | IC50 (KRas^G12V) | inhibition at 0.01 µM (KRas^G13D) | IC50 [1] | IC50 [2] | IC50 (KRas^WT) | IC50 (KRas^G12A) | IC50 (KRas^G12C) | IC50 (KRas^G12S) | IC50 (KRas^G13D) | IC50 (KRas^Q61H) | Compound | inhibition at 0.1 µM [3] | inhibition at 0.1 µM [4] | inhibition at 0.1 µM [5] | inhibition at 0.1 µM [6] | other results
1 |  |  |  | 32 nM | 11 nM |  | 12 nM |  | 788 nM | 275 nM | 20 nM | 16 nM | 18 nM | 12 nM | 21 nM | 26 nM | Oc1cc(-c2ncc3c(N4C[C@@H]5C[C@H](C4)[C@H](O)C5)nc(OC[C@@]45CCCN4C[C@H](F)C5)nc3c2F)c2cccc(F)c2c1 [Example 748, (1R,5R,6R)-3-(8-fluoro-7-(5-fluoro-3-hydroxynaphthalen-1-yl)-2-(((2R,7aS)-2-fluorohexahydro-1H-pyrrolizin-7a-yl)methoxy)pyrido[4,3-d]pyrimidin-4-yl)-3-azabicyclo[3.2.1]octan-6-ol] | -7% | -6% | 21% | 5% | 
2 |  |  |  | 54 nM | 16 nM |  | 19 nM |  | 1400 nM | 246 nM | 34 nM | 25 nM | 29 nM | 19 nM | 37 nM | 44 nM | Oc1cc(-c2ncc3c(N4C[C@@H]5C[C@H](C4)[C@H](O)C5)nc(OC[C@@]45CCCN4C[C@H](F)C5)nc3c2F)c2ccc(F)cc2c1 [Example 749, (1R,5R,6R)-3-(8-fluoro-7-(6-fluoro-3-hydroxynaphthalen-1-yl)-2-(((2R,7aS)-2-fluorohexahydro-1H-pyrrolizin-7a-yl)methoxy)pyrido[4,3-d]pyrimidin-4-yl)-3-azabicyclo[3.2.1]octan-6-ol] | 15% | -3% | 20% | -5% | 
3 |  |  |  | 98 nM | 42 nM |  | 29 nM |  | 1900 nM | 1680 nM | 84 nM | 63 nM | 74 nM | 43 nM | 74 nM | 184 nM | Oc1cc(-c2ncc3c(N4C[C@@H]5C[C@H](C4)[C@H](O)C5)nc(OC[C@@]45CCCN4C[C@H](F)C5)nc3c2F)c2ccccc2c1F [Example 750, (1R,5R,6R)-3-(8-fluoro-7-(4-fluoro-3-hydroxynaphthalen-1-yl)-2-(((2R,7aS)-2-fluorotetrahydro-1H-pyrrolizin-7a(5H)-yl)methoxy)pyrido[4,3-d]pyrimidin-4-yl)-3-azabicyclo[3.2.1]octan-6-ol] | -1% | 16% | 2% | 15% | inhibition at 0.1 µM [1]: -1%; inhibition at 0.1 µM [2]: 1%
4 | 97% | 96% | 99% | < 2 nM | < 2 nM | 97% | < 2 nM | 98% | 55 nM | 53 nM |  |  |  |  |  |  | C#Cc1c(F)ccc2cc(O)cc(-c3ncc4c(N5CCC[C@@](C)(O)C5)nc(OCC5(CN6CCCC6)CC5)nc4c3F)c12 [Example 752, (R)-1-(7-(8-ethynyl-7-fluoro-3-hydroxynaphthalen-1-yl)-8-fluoro-2-((1-(pyrrolidin-1-ylmethyl)cyclopropyl)methoxy)pyrido[4,3-d]pyrimidin-4-yl)-3-methylpiperidin-3-ol] | 31% | 44% | 32% | 76% | inhibition at 0.01 µM (KRas^Q61H): 99%; inhibition at 0.1 µM [1]: 27%; inhibition at 0.1 µM [2]: 31%

The remaining lines, values behind:

Row | Compound | inhibition at 0.01 µM (KRas^WT) | inhibition at 0.01 µM (KRas^G12A) | inhibition at 0.01 µM (KRas^G12C) | IC50 (KRas^G12D) | IC50 (KRas^G12R) | inhibition at 0.01 µM (KRas^G12S) | IC50 (KRas^G12V) | inhibition at 0.01 µM (KRas^G13D) | IC50 [1] | IC50 [2] | IC50 (KRas^WT) | IC50 (KRas^G12A) | IC50 (KRas^G12C) | IC50 (KRas^G12S) | IC50 (KRas^G13D) | IC50 (KRas^Q61H) | inhibition at 0.1 µM [3] | inhibition at 0.1 µM [4] | inhibition at 0.1 µM [5] | inhibition at 0.1 µM [6] | other results
5 | CN(C)C(=O)OC[C@@H]1CC[C@@]2(COc3nc(N4CCC[C@@](C)(O)C4)c4cnc(-c5cc(O)cc6ccc(F)c(F)c56)c(F)c4n3)CCCN12 [Example 548, ((3S,7aR)-7a-(((7-(7,8-difluoro-3-hydroxynaphthalen-1-yl)-8-fluoro-4-((R)-3-hydroxy-3-methylpiperidin-1-yl)pyrido[4,3-d]pyrimidin-2-yl)oxy)methyl)hexahydro-1H-pyrrolizin-3-yl)methyl dimethylcarbamate] | 79% | 79% | 84% | 2 nM | 5 nM | 79% | 3 nM | 86% | 55 nM | 88 nM |  |  |  |  |  |  | 38% | 38% | 29% | 59% | inhibition at 0.01 µM (KRas^Q61H): 79%
6 | CCc1c(F)ccc2cc(O)cc(-c3ncc4c(N5CCC[C@]6(CCO6)C5)nc(OCC5(CN(C)C)CC5)nc4c3F)c12 [Example 699, (S)-4-(2-((1-((dimethylamino)methyl)cyclopropyl)methoxy)-8-fluoro-4-(1-oxa-6-azaspiro[3.5]nonan-6-yl)pyrido[4,3-d]pyrimidin-7-yl)-5-ethyl-6-fluoronaphthalen-2-ol] | 91% | 87% | 96% |  |  | 93% |  | 96% | 2 nM | 6 nM |  |  |  |  |  |  | 80% | 95% | 82% | 101% | inhibition at 0.01 µM (KRas^Q61H): 96%; IC50 ([3]; HTRF pERK): 2 nM; IC50 ([4]; NCI-H460, HTRF pERK): 5 nM; IC50 ([5]; HCT-116, HTRF pERK): 14 nM; IC50 ([6]; NCI-H358, HTRF pERK): 3 nM
7 | Cc1ccc2c(-c3ncc4c(N5C[C@@H]6C[C@H](C5)[C@H](O)C6)nc(OC[C@@]56CCCN5C[C@H](F)C6)nc4c3F)cc(O)cc2c1 [Example 746, (1R,5R,6R)-3-(8-fluoro-2-(((2R,7aS)-2-fluorotetrahydro-1H-pyrrolizin-7a(5H)-yl)methoxy)-7-(3-hydroxy-6-methylnaphthalen-1-yl)pyrido[4,3-d]pyrimidin-4-yl)-3-azabicyclo[3.2.1]octan-6-ol] |  |  |  | 226 nM | 68 nM |  | 59 nM |  | 2260 nM | 1340 nM | 117 nM | 82 nM | 106 nM | 64 nM | 107 nM | 166 nM | -19% | 2% | 10% | -17% | 
8 | Cc1cccc2c(-c3ncc4c(N5C[C@@H]6C[C@H](C5)[C@H](O)C6)nc(OC[C@@]56CCCN5C[C@H](F)C6)nc4c3F)cc(O)cc12 [Example 747, (1R,5R,6R)-3-(8-fluoro-2-(((2R,7aS)-2-fluorohexahydro-1H-pyrrolizin-7a-yl)methoxy)-7-(3-hydroxy-5-methylnaphthalen-1-yl)pyrido[4,3-d]pyrimidin-4-yl)-3-azabicyclo[3.2.1]octan-6-ol] |  |  |  | 272 nM | 76 nM |  | 67 nM |  | 3850 nM | 1260 nM | 107 nM | 36 nM | 107 nM | 61 nM | 94 nM | 180 nM | 4% | -6% | 5% | -6% | 
